Results published in patent publication US20230183193A1, “4-DIFLUOROMETHYL BENZOYL AMIDES WITH HERBICIDAL ACTION” (BAYER CROPSCIENCE AKTIENGESELLSCHAFT, priority 2017, published 2023).

Assays:
[1] = test system: Abutilon theophrasti; assay: Pre-emergence herbicidal action, ABUTH; format: in vivo; details: for Herbicidal efficacy against ABUTH: Table K; for herbicidal activity ABUTH: scored visually after 3 weeks vs untreated controls
How it was run: (§1)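 Percent herbicidal activity rated by eye 3 weeks after pre-emergence soil-surface application, compared with untreated pots. Seeds sat under sandy loam; sprays carried 0.2% wetting agent.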

[2] = test system: Alopecurus myosuroides; assay: Pre-emergence herbicidal action, ALOMY; format: in vivo
How it was run: as §1

[3] = test system: Amaranthus retroflexus; assay: Pre-emergence herbicidal action, AMARE; format: in vivo; details: dosage 320 g/ha, scored visually after 3 weeks vs untreated controls
How it was run: as §1

[4] = test system: Avena fatua; assay: Pre-emergence herbicidal action, AVEFA; format: in vivo; details: for herbicidal activity AVEFA: dosage 320 g/ha, scored visually after 3 weeks vs untreated controls
How it was run: as §1

[5] = test system: Cyperus serotinus; assay: Pre-emergence herbicidal action, CYPES; format: in vivo
How it was run: as §1

[6] = test system: Matricaria inodora; assay: Pre-emergence herbicidal action, MATIN; format: in vivo; details: for Herbicidal efficacy against MATIN: Table K; for herbicidal activity MATIN: scored visually after 3 weeks vs untreated controls
How it was run: as §1

[7] = test system: Polygonum convolvulus; assay: Pre-emergence herbicidal action, POLCO; format: in vivo; details: Table K
Source text: 1. Pre-Emergence Herbicidal Action Against Harmful Plants Seeds of monocotyledonous and dicotyledonous weed plants and crop plants are laid out in sandy loam soil in wood-fiber pots and covered with soil. The compounds of the invention, formulated in the form of wettable powders (WP) or as emulsion concentrates (EC), are then applied to the surface of the covering soil in the form of an aqueous suspension or emulsion at a water application rate equating to […], with addition of 0.2% wetting agent. After the treatment, the pots are placed in a greenhouse and kept under good growth conditions for the trial plants. The damage to the test plants is scored visually after a test period of 3 weeks by comparison with untreated controls (herbicidal activity in percent (%): 100% activity=the plants have died, 0% activity=like control plants).
For comparison, the herbicidal activity of numerous compounds according to the invention was tested with the structurally closest compounds known from the documents WO 2011/035874, WO 2012/028579 and WO 2012/126932, by the pre- and post-emergence method.

[8] = test system: Setaria viridis; assay: Pre-emergence herbicidal action, SETVI; format: in vivo; details: for herbicidal activity SETVI: dosage 320 g/ha, scored visually after 3 weeks vs untreated controls
How it was run: as §1

[9] = test system: Stellaria media; assay: Pre-emergence herbicidal action, STEME; format: in vivo; details: dosage 320 g/ha, scored visually after 3 weeks vs untreated controls
How it was run: as §1

[10] = test system: Viola tricolor; assay: Pre-emergence herbicidal action, VIOTR; format: in vivo; details: for Herbicidal efficacy against VIOTR: Table K; for herbicidal activity VIOTR: scored visually after 3 weeks vs untreated controls
How it was run: as §1

[11] = test system: Abutilon theophrasti; assay: Post-emergence herbicidal action, ABUTH; format: in vivo; details: 80 g/ha, Table D
How it was run: (§2)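 Herbicidal effect is rated visually as percent versus untreated plants (100% = dead, 0% = like control) about 3 weeks after spraying. Plants were sown in sandy loam in the greenhouse and sprayed on green parts at the one-leaf stage, 2 to 3 weeks post-sowing.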

[12] = test system: Alopecurus myosuroides; assay: Post-emergence herbicidal action, ALOMY; format: in vivo; details: for Herbicidal efficacy against ALOMY: 20 g/ha
How it was run: as §2

[13] = test system: Amaranthus retroflexus; assay: Post-emergence herbicidal action, AMARE; format: in vivo; details: 80 g/ha, Table D
How it was run: as §2

[14] = test system: Avena fatua; assay: Post-emergence herbicidal action, AVEFA; format: in vivo; details: for Herbicidal efficacy against AVEFA: 20 g/ha
How it was run: as §2

[15] = test system: Pharbitis purpureum; assay: Post-emergence herbicidal action, PHBPU; format: in vivo; details: 80 g/ha, Table D
How it was run: as §2

[16] = test system: Setaria viridis; assay: Post-emergence herbicidal action, SETVI; format: in vivo; details: for Herbicidal efficacy against SETVI: 20 g/ha; for herbicidal activity SETVI: 80 g/ha, Table C
How it was run: as §2

[17] = test system: Stellaria media; assay: Post-emergence herbicidal action, STEME; format: in vivo; details: for Herbicidal efficacy against STEME: 20 g/ha; for Herbicidal activity STEME: 80 g/ha, Table D
How it was run: as §2

[18] = test system: Viola tricolor; assay: Post-emergence herbicidal action, VIOTR; format: in vivo; details: for Herbicidal efficacy against VIOTR: 20 g/ha; for herbicidal activity VIOTR: 80 g/ha, Table D
How it was run: as §2

[19] = test system: ECHCG; assay: Post-emergence herbicidal action, ECHCG; format: in vivo; details: 80 g/ha, Table C
How it was run: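 Weed and crop plants grown in sandy loam in the greenhouse, treated at the one-leaf stage 2–3 weeks after sowing. Damage scored visually after about 3 weeks vs untreated controls (0% = control, 100% = dead).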

[20] = test system: ECHCG; assay: Pre-emergence herbicidal action, ECHCG; format: in vivo, Echinochloa crus-galli
[21] = dosage 320 g/ha, scored visually after 3 weeks vs untreated controls

CSc1c(C(F)F)ccc(C(=O)Nc2ncnn2C)c1C [Example 4-1, 4-(difluoromethyl)-2-methyl-3-(methylsulfanyl)-N-(1-methyl-1H-1,2,4-triazol-5-yl)benzamide]
100%: herbicidal activity ABUTH ([1]; dosage 320 g/ha) | herbicidal activity AMARE [3] | herbicidal activity SETVI [8] | herbicidal activity VIOTR ([10]; dosage 320 g/ha) | herbicidal activity ABUTH [11] | herbicidal activity AMARE [13] | Herbicidal activity PHBPU [15] | herbicidal activity SETVI [16] | Herbicidal activity STEME [17] | herbicidal activity VIOTR [18]
40: Herbicidal efficacy against ALOMY ([2]; 320 g/ha)
90: Herbicidal efficacy against ABUTH ([1]; dosage 80 g/ha) | Herbicidal efficacy against MATIN ([6]; dosage 320 g/ha)
70: Herbicidal efficacy against ALOMY [12] | Herbicidal efficacy against ECHCG ([20]; 80 g/ha)
90%: herbicidal activity MATIN ([6]; dosage 320 g/ha) | Herbicidal activity STEME [9] | Herbicidal activity ECHCG [19]
30: Herbicidal efficacy against AVEFA ([4]; 80 g/ha) | Herbicidal efficacy against CYPES ([5]; 80 g/ha) | Herbicidal efficacy against POLCO ([7]; dosage 80 g/ha) | Herbicidal efficacy against POLCO ([7]; dosage 320 g/ha)
20: Herbicidal efficacy against AVEFA [14]
100: Herbicidal efficacy against ABUTH ([1]; dosage 320 g/ha) | Herbicidal efficacy against SETVI ([8]; 320 g/ha) | Herbicidal efficacy against VIOTR ([10]; dosage 80 g/ha) | Herbicidal efficacy against VIOTR ([10]; dosage 320 g/ha) | Herbicidal efficacy against VIOTR [18] | Herbicidal efficacy against ECHCG ([20]; 320 g/ha)
80: Herbicidal efficacy against AVEFA ([4]; 320 g/ha) | Herbicidal efficacy against MATIN ([6]; dosage 80 g/ha) | Herbicidal efficacy against SETVI ([8]; 80 g/ha) | Herbicidal efficacy against STEME [17]
60: Herbicidal efficacy against SETVI [16]
80%: herbicidal activity AVEFA [4] | herbicidal activity ALOMY ([12]; 80 g/ha, Table C)
50: Herbicidal efficacy against CYPES ([5]; 320 g/ha)

Cc1c(C(=O)Nc2ncnn2C)ccc(C(F)F)c1S(C)(=O)=O [Example 4-3]
60: Herbicidal efficacy against ALOMY ([2]; 80 g/ha) | Herbicidal efficacy against STEME [17]
70: Herbicidal efficacy against POLCO ([7]; dosage 320 g/ha)
30: Herbicidal efficacy against AVEFA ([4]; 80 g/ha) | Herbicidal efficacy against ALOMY [12]
80: Herbicidal efficacy against AVEFA ([4]; 320 g/ha)
90%: herbicidal activity ALOMY [2, 21] | herbicidal activity AVEFA ([14]; 80 g/ha, Table C) | Herbicidal activity STEME [17]
100: Herbicidal efficacy against ABUTH ([1]; dosage 80 g/ha) | Herbicidal efficacy against ABUTH ([1]; dosage 320 g/ha) | Herbicidal efficacy against CYPES ([5]; 80 g/ha) | Herbicidal efficacy against CYPES ([5]; 320 g/ha) | Herbicidal efficacy against MATIN ([6]; dosage 80 g/ha) | Herbicidal efficacy against MATIN ([6]; dosage 320 g/ha) | Herbicidal efficacy against SETVI ([8]; 320 g/ha) | Herbicidal efficacy against VIOTR ([10]; dosage 80 g/ha) | Herbicidal efficacy against VIOTR ([10]; dosage 320 g/ha) | Herbicidal efficacy against VIOTR [18] | Herbicidal efficacy against ECHCG ([20]; 80 g/ha) | Herbicidal efficacy against ECHCG ([20]; 320 g/ha)
80%: herbicidal activity AVEFA [4]
40: Herbicidal efficacy against POLCO ([7]; dosage 80 g/ha) | Herbicidal efficacy against SETVI [16]
90: Herbicidal efficacy against ALOMY ([2]; 320 g/ha) | Herbicidal efficacy against SETVI ([8]; 80 g/ha)
50: Herbicidal efficacy against AVEFA [14]
100%: herbicidal activity ABUTH ([1]; dosage 320 g/ha) | herbicidal activity AMARE [3] | herbicidal activity CYPES [5, 21] | herbicidal activity MATIN ([6]; dosage 320 g/ha) | herbicidal activity SETVI [8] | Herbicidal activity STEME [9] | herbicidal activity VIOTR ([10]; dosage 320 g/ha) | herbicidal activity ABUTH [11] | herbicidal activity AMARE [13] | Herbicidal activity PHBPU [15] | herbicidal activity SETVI [16] | herbicidal activity VIOTR [18] | Herbicidal activity ECHCG [19]
